Measurements reported in patent publication US20100256043A1, “USE OF A PEPTIDE AS A THERAPEUTIC AGENT” (priority 2007, published 2010).
Residues, ends and D or L forms follow the SMILES beside them.

How the values were obtained:
[1] = tested on: HepG2-2.2.15 cells; test: Cell viability (dye uptake) in the HBV assay; format: cell-based; details: peptide 10 micrograms per ml
[2] = tested on: CEM-SS cells; test: Cytotoxicity (MTS cell viability) in the HIV-1 assay; details: peptide 10 micrograms per ml
[3] = tested on: HIV-1IIIB; test: HIV-1 antiviral assay (CPE reduction) in CEM-SS cells; format: cell-based; details: peptide 10 micrograms per ml; 6 days post-infection; MTS readout
[4] = tested on: Human Peripheral Blood Mononuclear Cells (PBMC), B cell proliferation; test: B cell proliferation assay (SAC plus IL-2 stimulated PBMC, 3H-thymidine); format: cell-based; details: 10 micrograms per ml
[5] = tested on: HCMV strain AD169; test: HCMV plaque reduction assay in MRC-5 cells; details: HCMV AD169 in MRC-5 cells; peptide 10 micrograms per ml; 7-10 days
[6] = tested on: Primary Human endothelial cells (HUVEC); test: Endothelial cell migration assay; format: cell-based; details: 10 micrograms per ml, 22 hours
[7] = tested on: HUVEC; test: Endothelial tube formation assay; format: cell-based, human; details: 10 micrograms per ml, 20 hours
Excerpt: Positive control was vehicle only.

[8] = tested on: spleen cells of Ovalbumin-immunized Balb/c mice; test: Th1/Th2 cytokine profiling assay (Ovalbumin-restimulated spleen cells, CBA kit); format: cell-based, mouse; details: 10 micrograms per ml; Ovalbumin restimulation; 72 hours
[9] = tested on: human peripheral blood mononuclear cells (PBMC), cyclic AMP generation; test: cAMP induction assay (ELISA); format: cell-based; details: 10 min at 37° C., forskolin 50 micrograms per ml
Experimental: The cAMP kit was used as an immunoassay for the quantitative determination of cyclic AMP generation in human peripheral blood mononuclear cells (PBMC). PBMC were placed in 96-well microtitier plates (50 microliters of cells at 4×10^6/ml) and 50 microliters of medium alone (background control), forskolin (cAMP positive control; 50 micrograms per ml), or test peptide were added. […] NaOH was added to neutralize the samples. Plates were centrifuged for 15 min at 2500 rpm and the supernatants removed. The supernatants (diluted 2-fold in assay buffer) were then assayed for the levels of cAMP by ELISA.

[10] = tested on: RAW 264.7 cells; test: Phagocytosis assay (Fluorescein-labeled Escherichia coli, flow cytometry); format: cell-based, mouse; details: 10 micrograms per ml, Fluorescein-labeled E. coli
Experimental: The samples were then analyzed by flow cytometry to determine the amount of phagocytosis as a function of brightness (the greater the phagocytic activity, the more fluorescence in the macrophage population). Data are reported as % positive and the mean fluorescence intensity (MFI) of positively stained cells.

[11] = in vitro; details: human, CEM-SS cells (uninfected; cells plus peptide only)
[12] = Cell viability (dye uptake) in the HBV assay; format: cell-based; details: human, HepG2-2.2.15 cells, peptide 10 micrograms per ml
[13] = tested on: Human A549 cells; test: Propidium iodide cell cycle assay; format: cell-based; details: 10 micrograms per ml, 24 hours, FACS
[14] = tested on: Human Peripheral Blood Mononuclear Cells (PBMC), T cell proliferation; test: T cell proliferation assay (PHA-stimulated PBMC, 3H-thymidine); details: 10 micrograms per ml
[15] = in vitro; details: human, MRC-5 cells (embryonal lung fibroblasts)
[16] = tested on: hepatitis B virus (HBV) ayw strain; test: HBV replication assay in HepG2-2.2.15 cells (TaqMan PCR of secreted HBV DNA); format: cell-based; details: peptide 10 micrograms per ml, six days, HBV DNA in supernatant
[17] = tested on: Human A549 cells; test: Apoptosis prevention assay (C2 ceramide, Annexin-5); format: cell-based; details: 10 micrograms per ml pretreatment 30 min
Excerpt: Human A549 cells (carcinomic human alveolar basal epithelial cells) were utilized in the experiments employing the Annexin-5 apoptosis assay.

[18] = tested on: Human A549 cells; test: Apoptosis induction assay (Annexin-5); format: cell-based; details: 24 hours
Experimental: Human A549 cells (carcinomic human alveolar basal epithelial cells) were utilized in the experiments employing the Annexin-5 apoptosis assay. […] Test peptide-micrograms per ml—were exposed for 24 hours to the A549 cells before they were analyzed for signs of apoptosis.

[19] = tested on: macrophages differentiated from human PBMC, TNF alpha production; test: TNF alpha production assay (LPS-stimulated macrophages, ELISA); format: cell-based; details: 10 micrograms per ml, lipopolysaccharide 200 ng/ml, overnight
Excerpt: Not stimulated macrophages served as negative background control.

Nc1ccn([C@@H]2CS[C@H](CO)O2)c(=O)n1 [Compound 3TC, Lamivudine, reference compound]
% Cell viability [1]: 95.8%

Cc1cn([C@H]2C[C@H](N=[N+]=[N-])[C@@H](CO)O2)c(=O)[nH]c1=O [AZT, reference compound]
% Cell viability [2]: 97% | % CPE reduction in HIV-1 infected CEM-SS cells [3]: 99%

CC[C@H](C)[C@H](NC(=O)[C@H](C)NC(=O)CNC(=O)[C@H](CCCNC(=N)N)NC(=O)[C@H](C)NC(=O)[C@H](CC(C)C)NC(=O)[C@H](CCC(=O)O)NC(=O)[C@H](CC(C)C)NC(=O)[C@H](C)NC(=O)[C@@H](N)CCC(=O)O)C(=O)N[C@@H](Cc1ccccc1)C(=O)N[C@@H](CCC(N)=O)C(=O)N[C@@H](C)C(N)=O [BINP] (H-EALELARGAIFQA-NH2)
% of SAC/IL2 induced control [4]: 96.5% | % plaque reduction [5]: 1.0% | % inhibition of migration [6]: 8% | % inhibition of tube formation [7]: −1% | IFNγ spleen cells; TH1 response (% of control) [8]: 133.9 % of control | IL-2 spleen cells (% of control) [8]: 0.0 % of control | IL-4 spleen cells; TH2 response (% of control) [8]: 0.0 % of control | IL-5 spleen cells; TH2 response (% of control) [8]: 50.3 % of control | TNF-a spleen cells; TH1 response (% of control) [8]: 97.0 % of control | % of Forskolin (positive control) induced cAMP formation [9]: 44.3% | % of control phagocytosis [10]: 134.3% | viability at 10 micrograms per ml [11]: 99.1% | % CPE reduction in HIV-1 infected CEM-SS cells [3]: 0.0% | viability at 144 h, 10 micrograms per ml [12]: 96.9% | Cell cycle analysis G0/G1 [13]: 57.9 | Cell cycle analysis G2/M [13]: 12.2 | Cell cycle analysis S [13]: 29.9 | % of PHA induced Control [14]: 96.2% | viability at 144 h [15]: 99.7% | % inhibition of HBV replication in HEP G2 cells [16]: 8.2% | % prevention of ceramide induced apoptosis [17]: 0.0% | % of induction [18]: 0.2% | % of LPS induction [19]: 102.3%
